Legend:
[1] = molecular target: DapE (Mycobacterium tuberculosis, UniProt P9WHS9)
[2] = molecular target: Rv1723 (Mycobacterium tuberculosis, UniProt P71981)
[3] = molecular target: Rv0309 (Mycobacterium tuberculosis, UniProt O07236)
Rv0309, sequence (O07236 19-218 limits assumed): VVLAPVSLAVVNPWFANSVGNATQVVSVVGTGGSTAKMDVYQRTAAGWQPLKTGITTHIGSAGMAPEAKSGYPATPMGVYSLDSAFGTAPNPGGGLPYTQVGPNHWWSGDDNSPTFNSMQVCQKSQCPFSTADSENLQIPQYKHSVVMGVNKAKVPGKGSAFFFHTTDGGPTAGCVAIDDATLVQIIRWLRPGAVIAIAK

Rv1723, sequence (P71981 1-415): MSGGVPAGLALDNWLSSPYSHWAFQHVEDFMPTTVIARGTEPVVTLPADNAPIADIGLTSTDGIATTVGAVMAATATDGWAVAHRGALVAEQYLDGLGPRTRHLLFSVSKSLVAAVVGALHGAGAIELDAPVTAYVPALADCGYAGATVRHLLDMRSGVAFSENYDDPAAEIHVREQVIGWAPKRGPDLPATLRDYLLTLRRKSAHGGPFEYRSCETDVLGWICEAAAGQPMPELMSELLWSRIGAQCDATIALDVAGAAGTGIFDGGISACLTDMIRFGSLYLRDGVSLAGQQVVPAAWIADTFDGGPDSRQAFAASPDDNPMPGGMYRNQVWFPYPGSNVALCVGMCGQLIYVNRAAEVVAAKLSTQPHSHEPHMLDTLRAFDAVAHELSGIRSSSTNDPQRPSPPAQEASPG
DapE, sequence (P9WHS9 whole entry, looked up): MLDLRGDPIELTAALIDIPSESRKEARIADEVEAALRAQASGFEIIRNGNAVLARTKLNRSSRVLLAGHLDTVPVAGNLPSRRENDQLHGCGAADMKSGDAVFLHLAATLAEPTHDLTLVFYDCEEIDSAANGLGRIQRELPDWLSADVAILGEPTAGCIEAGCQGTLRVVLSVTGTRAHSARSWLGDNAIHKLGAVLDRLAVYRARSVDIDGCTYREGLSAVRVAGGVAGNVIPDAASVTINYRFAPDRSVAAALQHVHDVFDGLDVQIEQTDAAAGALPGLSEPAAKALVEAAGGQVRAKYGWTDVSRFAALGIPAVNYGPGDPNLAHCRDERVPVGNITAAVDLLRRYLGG

For `C[C@@H](O)[C@H]1C(=O)N2C(C(=O)O)=C(S[C@H]3C[C@@H](C(=O)N(C)C)N(C(=O)CCCCC[N+]4=C(/C=C/C=C/C=C5/N(C)c6ccc(S(=O)(=O)O)cc6C5(C)C)C(C)(C)c5cc(S(=O)(=O)[O-])ccc54)C3)[C@H](C)[C@H]12` [Mero-sCy5], the “fluorescent gel labelling (SDS-PAGE)” value [1] was “Mero-sCy5 labeled all enzymes”.
`CO[C@@]1(NC(=O)Cc2cccs2)C(=O)N2C(C(=O)O)=C(COC(N)=O)CS[C@@H]21` [cefoxitin] was tested, and the “native MS (acyl-enzyme)” value [2] was “binding to cefoxitin was only partial”.
With `C[C@@H](O)[C@H]1C(=O)N2C(C(=O)O)=C(S[C@@H]3CN[C@H](C(=O)N(C)C)C3)[C@H](C)[C@H]12` [meropenem] the “native MS (acyl-enzyme); competition of Mero-sCy5 labelling; inhibition of nitro” value [3] was “Rv0309 partially bound meropenem”.

From doi:10.1101/2025.02.25.640225v1 (biorxiv, 2025)
